Results published in paper PMC7308271, “Discovery of a new class of orthosteric antagonists with nanomolar potency at extrasynaptic GABAA receptors” (Scientific Reports, 2020).
pIC50: −log10 of the molar value. Each block holds one molecule with its values, some of them ahead of it.

Legend:
[1] = target: T1, human α4β1δ GABAΑ receptor (Homo sapiens, UniProt P18505+P48169); test: FMP assay at α4β1δ GABAA receptors in HEK cells (screening, concentration-inhibition, Schild analysis); type: cell-based; details: HEK293, read-out: inhibition of the GABA EC80 signal, primary screening, 10 μM, singlicates
T1 construct: expressed in transfected cells; host or cells: δ-HEK (HEK293 Flp-In stably expressing human δ), transiently transfected with α4 and β1 1:1
T1 sequence (P48169 36-554): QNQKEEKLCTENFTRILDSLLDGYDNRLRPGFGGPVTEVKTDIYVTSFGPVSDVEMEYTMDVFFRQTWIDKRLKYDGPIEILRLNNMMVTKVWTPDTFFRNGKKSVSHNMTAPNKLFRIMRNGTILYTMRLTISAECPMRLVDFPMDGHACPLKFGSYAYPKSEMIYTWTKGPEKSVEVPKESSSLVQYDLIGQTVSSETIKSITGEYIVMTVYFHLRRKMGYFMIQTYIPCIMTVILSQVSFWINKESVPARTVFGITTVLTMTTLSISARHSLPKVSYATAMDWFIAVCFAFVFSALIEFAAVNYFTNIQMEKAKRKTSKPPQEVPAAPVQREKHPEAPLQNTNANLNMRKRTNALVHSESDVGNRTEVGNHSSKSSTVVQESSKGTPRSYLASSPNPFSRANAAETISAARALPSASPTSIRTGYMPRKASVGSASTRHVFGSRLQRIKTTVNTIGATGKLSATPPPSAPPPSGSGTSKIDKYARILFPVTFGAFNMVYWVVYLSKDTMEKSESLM
T1 sequence (P18505 26-474): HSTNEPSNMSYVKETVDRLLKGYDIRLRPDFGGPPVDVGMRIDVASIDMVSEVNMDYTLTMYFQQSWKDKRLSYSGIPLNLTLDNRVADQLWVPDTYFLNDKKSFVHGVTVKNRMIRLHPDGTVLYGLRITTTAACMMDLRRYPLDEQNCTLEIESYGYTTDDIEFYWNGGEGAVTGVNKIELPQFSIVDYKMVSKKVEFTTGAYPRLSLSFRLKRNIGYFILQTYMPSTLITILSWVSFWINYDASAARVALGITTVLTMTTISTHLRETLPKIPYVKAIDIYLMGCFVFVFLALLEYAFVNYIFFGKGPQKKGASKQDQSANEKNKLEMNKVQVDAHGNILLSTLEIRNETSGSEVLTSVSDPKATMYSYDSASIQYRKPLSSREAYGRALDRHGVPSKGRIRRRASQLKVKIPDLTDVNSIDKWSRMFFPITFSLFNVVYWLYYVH
T1 sequence (O14764 25-452 partner): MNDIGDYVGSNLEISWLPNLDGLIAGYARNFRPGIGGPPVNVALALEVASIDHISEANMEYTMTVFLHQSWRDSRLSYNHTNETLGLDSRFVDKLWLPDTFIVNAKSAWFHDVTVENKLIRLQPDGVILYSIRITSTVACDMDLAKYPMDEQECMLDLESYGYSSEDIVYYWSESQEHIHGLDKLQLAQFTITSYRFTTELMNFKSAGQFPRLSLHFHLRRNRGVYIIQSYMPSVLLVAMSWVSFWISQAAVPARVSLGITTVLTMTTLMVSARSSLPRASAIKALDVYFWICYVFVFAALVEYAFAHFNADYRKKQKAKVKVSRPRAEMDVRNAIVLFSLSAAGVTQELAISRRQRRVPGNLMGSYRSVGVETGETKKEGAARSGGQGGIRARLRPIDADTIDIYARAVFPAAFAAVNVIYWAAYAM
Description: We have previously established a FLIPR membrane potential (FMP) assay to study recombinant δ-containing GABAΑRs entailing a HEK293 Flp-In cell line stably expressing the human δ-subunit which is suitable for co-transfection with any desired α/β subunits. Initially, we validated the applicability of the FMP assay for efficient compound screening in 96-well microtiter plates using the human α4β1δ GABAΑR heterologously expressed in HEK cells. This receptor was chosen as we have previously shown this system to be reliable in expressing δ-containing receptors. To this end, we determined the Z′-factor, which is a statistical factor used to measure the suitability of an assay for high throughput screening.
Thus, we went on to further characterize 2027 by making a full concentration-inhibition curve.
HEK293 cells were maintained in DMEM containing GlutaMAX-I, supplemented with 10% FBS and 1% penicillin-streptomycin and incubated at 37 °C and a humidity of 5% CO2. For expression of δ-containing GABAΑ receptors, a HEK293 Flp-In^ΤΜ cell line stably expressing the human GABAΑ δ-subunits (referred to as δ-HEK) was used and the γ-containing subtypes was expressed in a background HEK293 Flp-In^ΤΜ cell line stably expressing the G-protein coupled peptide receptor NPBWR2 (referred to as HEK background)[26], both positively selected for using 200 μg/mL hygromycin B. α1β2γ2 receptors were stably expressed in a HEK293 cell line maintained as above but with no selection (gift from Marianne L. Jensen, Neurosearch).
(§1) To express recombinant GABAΑ receptors human α1, α2, α3, α5, α6, β2, γ2 (pcDNA3.1/Zeo) and α4, β1 (pUNIV)[26] subunit cDNA were transiently transfected into either δ-HEK or HEK background cells. δ-HEK cells were transfected with α- and β-subunits in a 1:1 ration whereas HEK background cells were transfected with α-, β- and γ-subunits in a 1:1:2 ratio. Human BGT1 (pcDNA5/FRT)[43] was transiently transfected into the δ-HEK cell line. δ-HEK cells transfected for whole-cell patch-clamp recordings were co-transfected with green fluorescent protein (GFP) as well as α- and β-subunits in a 0.5:1:1 ratio (0.8 μg + 1.6 μg + 1.6 μg in a 6 cm dish) in order to identify transfected cells. The transfection was carried out using Polyfect as transfection reagent according to the manufactures protocol expect for using half the recommended volume of Polyfect.
The FMP assay was performed as previously described with a few modifications. Briefly, HEK cells were transfected as described[26] and 16–20 hours later plated (50,000 cells/well in DMEM medium) into clear-bottomed black 96-well plates coated with poly-D-lysine and the assay performed 20–28 hours later. The assay protocol including the FMP blue dye incorporation into membranes was exactly as described in Falk-Petersen et al.[26]. […] Data was obtained as changes in fluorescence units (∆RFU) by measuring emission at 560 nm caused by excitation at 530 nm. Unless otherwise mentioned in the text or figure legends experiments were performed in at least three independent experiments each using three technical replicates.
Data obtained in the FMP assay are given as relative changes in fluorescence units (ΔRFU) by subtracting the average of the baseline fluorescence signal from the peak fluorescence signal after compound addition. All raw traces were inspected manually and peak signals resulting from compound/buffer addition together with signal artefacts were omitted from the analysis.
The concentration-response curves obtained in the FMP assay for both agonists (determining EC50 values) and antagonists (determining IC50 values) were fitted using the four-parameter concentration-response model: Response=bottom+top−bottom/1+10^[(logEC50-A)⋅nH] EC/IC50 values describe the concentration resulting in the half-maximal response (halfway between top and bottom), and nΗ is the Hill coefficient.

[2] = tested on: tonic currents in dentate gyrus granule cells; details: rat slice recordings, cited from earlier work
[3] = target: T2, human BGT1 (Homo sapiens, UniProt P48065); test: Fluorescence interference control: BGT1-mediated GABA uptake in the FMP assay; type: cell-based; details: 110 μM GABA uptake by BGT1 in δ-HEK cells; 2027 at 30, 10, 3 μM
T2 construct: expressed in transfected cells; host or cells: δ-HEK cells, transient transfection (pcDNA5/FRT)
T2 sequence (P48065 1-614): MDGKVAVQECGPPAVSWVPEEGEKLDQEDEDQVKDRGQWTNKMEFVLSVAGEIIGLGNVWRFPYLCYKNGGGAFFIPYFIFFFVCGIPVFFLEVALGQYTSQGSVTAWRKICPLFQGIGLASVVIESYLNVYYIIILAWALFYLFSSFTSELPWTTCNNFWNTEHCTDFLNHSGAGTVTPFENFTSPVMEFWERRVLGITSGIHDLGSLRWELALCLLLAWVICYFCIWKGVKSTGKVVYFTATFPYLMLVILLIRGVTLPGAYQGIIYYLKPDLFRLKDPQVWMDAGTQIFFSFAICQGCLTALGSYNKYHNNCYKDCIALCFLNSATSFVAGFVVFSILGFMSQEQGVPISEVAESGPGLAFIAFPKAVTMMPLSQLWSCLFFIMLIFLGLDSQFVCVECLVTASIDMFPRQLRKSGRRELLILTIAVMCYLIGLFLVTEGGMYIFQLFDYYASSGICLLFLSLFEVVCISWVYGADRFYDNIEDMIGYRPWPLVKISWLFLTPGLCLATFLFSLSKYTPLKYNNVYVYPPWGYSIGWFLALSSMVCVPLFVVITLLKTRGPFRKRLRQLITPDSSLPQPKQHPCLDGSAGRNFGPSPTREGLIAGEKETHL
Description: as §1
assay (perf ormed essentially as previously described in methods section and based on Al-Khawaja et al.).
in d-HEK cells was not decreased/quenched by 2027 in any of the tested concentrations. Data are shown as
means ± SD f rom a representative expe riment perf orme d in triplicate (n=2).
BGT1 expressed in HEK-δ cells

inhibition at 10 µM [1]: > 50%
Compound: COc1ccccc1NC(=O)C1CCN(Cc2ccco2)CC1 [compound 2100, 1-(furan-2-ylmethyl)-N-(2-methoxyphenyl)piperidine-4-carboxamide]

Compound: Oc1noc(C2CCNCC2)c1CCC(c1ccccc1)c1ccccc1 [DPP-4-PIOL]
pIC50 ([2]; read-out: IC50 inhibiting tonic currents): 9.06
potency in inhibiting tonic over phasic currents [2]: approximately 20 times

interference with / quenching of the fluorescence signal [3]: do not interfere
Compound: COc1ccc(-c2ccc(=N)n(CCCC(=O)O)n2)cc1 [Gabazine, reference compound]
